The text below walks through data of the OligoGym collection.

After the bases stand the sugars from the 5' end (letter, count) and the backbone: PS all phosphorothioate, else s phosphorothioate and o phosphodiester by linkage. Methylation of C is not given here. l = locked nucleic acid (LNA); d = 2'-deoxy (DNA)

This series concerns the target SNHG14. Conditions: ASO.
[1] abbreviates: Mouse Primary Neuronal Cell, 0.005 µM.

For “ACCACCTAAGACCTCAA (sugars l2 d11 l4, PS)”, the target mRNA inhibition was 38% (Human Neuronal Cell, 0.2 µM) and 60% (Human Neuronal Cell, 1 µM).

Regarding “GCAACATTATTAACCACCT (sugars ldlddddddddddddldll, PS)”, the target mRNA inhibition (Human Neuronal Cell, 7.5 µM) turned out to be 58%.

Turning to “TTATAGCCATTCTATCT (sugars l2 d10 l2 d1 l2, PS)”, for the setting “Human Neuronal Cell, 7.5 µM”, the target mRNA inhibition was determined as 56%.

Take “TTTCCATTTATTTCCATTT (sugars l2 d2 l2 d11 l2, PS)”: where the note is “Human Neuronal Cell, 7.5 µM”, the target mRNA inhibition came to 59%.

“TGTTTCCATCTACTATTA (sugars lddldlddddddddddll, PS)”: under “Human Neuronal Cell, 7.5 µM”, the target mRNA inhibition was found to be 59%.

For the sequence “ATCATTCTCAACAATTAA (sugars l1 d1 l4 d6 l6, PS)”, the target mRNA inhibition (Human Neuronal Cell, 7.5 µM) came out at 4%.

Consider “TTTTATACCTTTCTTTAACC (sugars l1 d1 l2 d14 l2, PS)”, for which, for the setting “Human Neuronal Cell, 7.5 µM”, the target mRNA inhibition stood at 57%.

Consider “TACACTTAATTATACTTC (sugars l2 d12 l4, PS)”, for which the target mRNA inhibition turned out to be 26% (Human Neuronal Cell, 0.2 µM) and 42% (Human Neuronal Cell, 1 µM).

Consider “AAAATCTCAACTACCATTTT (sugars ldlllldddddddddlddll, PS)”, for which the target mRNA inhibition (Human Neuronal Cell, 7.5 µM) was 50%.

Regarding “AGTTCTACTATACTTTC (sugars l1 d2 l2 d8 l4, PS)”, the target mRNA inhibition (Human Neuronal Cell, 7.5 µM) amounted to 57%.

For the sequence “AGATCATTCTCAACAATT (sugars l1 d3 l2 d6 l6, PS)”, the target mRNA inhibition (Human Neuronal Cell, 7.5 µM) turned out to be 54%.

Regarding TTTACTGTCAACTCCT (sugars l2 d10 l4, PS), the target mRNA inhibition is 51% (Human Neuronal Cell, 0.2 µM) and 57% (Human Neuronal Cell, 1 µM).

On to “GTATTTACTCTTTACCT (sugars l3 d11 l3, PS)”, for which the target mRNA inhibition is, setting by setting: (Human Neuronal Cell, 0.2 µM) 41%; (Human Neuronal Cell, 1 µM) 35%.

Consider “AATTTTTTTCTTACTATCTT (sugars ldddldlddddddlldddll, PS)”, for which the target mRNA inhibition (Human Neuronal Cell, 7.5 µM) was found to be 34%.

For the sequence “ATTTTTTTCTTACTATCTTC (sugars ldlddldddddddddddlll, PS)”, where the note is “Human Neuronal Cell, 7.5 µM”, the target mRNA inhibition is 56%.

In the case of “CTACTAAACATACACAT (sugars l3 d11 l3, PS)”, the target mRNA inhibition by setting is: (Human Neuronal Cell, 0.2 µM) 34%; (Human Neuronal Cell, 1 µM) 45%.

For “ACTCTCACTGTAACTTT (sugars l4 d11 l2, PS)”, the target mRNA inhibition by setting is: (Human Neuronal Cell, 0.2 µM) 21%; (Human Neuronal Cell, 1 µM) 35%.

Consider ATCTGATCTCACACAT (sugars l3 d10 l3, PS), for which the target mRNA inhibition reads like this: (Human Neuronal Cell, 0.2 µM) 22%; (Human Neuronal Cell, 1 µM) 40%.

Turning to “ACATCTCATACTTGCTT (sugars l2 d12 l3, PS)”, the target mRNA inhibition under setting [1] stood at 96.9%.

Regarding “TTATACCTTTCTTTAACCCT (sugars ldlddddddddddlddddll, PS)”, the target mRNA inhibition (Human Neuronal Cell, 7.5 µM) was 60%.

“CCAAACTGTCTTCTAAT (sugars l2 d11 l4, PS)”: the target mRNA inhibition by setting is: (Human Neuronal Cell, 0.2 µM) 23%; (Human Neuronal Cell, 1 µM) 26%.

In the case of “TTGATTCAATTCCCTTA (sugars l2 d9 l1 d3 l2, PS)”, the target mRNA inhibition (Human Neuronal Cell, 7.5 µM) is 60%.

As to “TATTGATTCAATTCCCT (sugars l2 d2 l1 d10 l2, PS)”, the target mRNA inhibition (Human Neuronal Cell, 7.5 µM) is 55%.

Regarding “GCACATTCTTTCTATAC (sugars l2 d2 l1 d9 l3, PS)”, the target mRNA inhibition (Human Neuronal Cell, 7.5 µM) came out at 62%.

In the case of TACTCTGCAATACACC (sugars l3 d11 l2, PS), the target mRNA inhibition (Human Neuronal Cell, 7.5 µM) was found to be 55%.

Regarding “TTATAGCCATTCTATCT (sugars ldlldddddddlddlll, PS)”, for the setting “Human Neuronal Cell, 7.5 µM”, the target mRNA inhibition amounted to 21%.

As to “ATACCTTTCTTTAACCC (sugars l4 d11 l2, PS)”, the target mRNA inhibition (Human Neuronal Cell, 0.2 µM) came to 60% and the target mRNA inhibition (Human Neuronal Cell, 1 µM) was 67%.

In the case of “TTTTATACCTTTCTTTAACC (sugars l1 d14 l1 d2 l2, PS)”, under “Human Neuronal Cell, 7.5 µM”, the target mRNA inhibition stood at 21%.

“GCACATTCTTTCTATAC (sugars ldlldddddddlddlll, PS)”: under “Human Neuronal Cell, 7.5 µM”, the target mRNA inhibition was found to be 51%.

Regarding CAACATTATTGACACT (sugars l2 d10 l4, PS), the target mRNA inhibition reads like this: (Human Neuronal Cell, 0.2 µM) 45%; (Human Neuronal Cell, 1 µM) 61%.

As to “TACCTACATCTCATACT (sugars l2 d13 l2, PS)”, the target mRNA inhibition (Human Neuronal Cell, 0.2 µM) is -1%; the target mRNA inhibition (Human Neuronal Cell, 1 µM) is 0%; the target mRNA inhibition (Human Neuronal Cell, 5 µM) was 11%; the target mRNA inhibition under setting [1] came to 78.6%.

Regarding “ATATTGATTCAATTCCC (sugars llldldddddddlddll, PS)”, where the note is “Human Neuronal Cell, 7.5 µM”, the target mRNA inhibition was 52%.

As for CATTATTAACCACCTT (sugars l2 d10 l4, PS), the target mRNA inhibition reads like this: (Human Neuronal Cell, 0.2 µM) 54%; (Human Neuronal Cell, 1 µM) 59%.

On to “ATTGATTCAATTCCCTT (sugars ldldldddddddlldll, PS)”, for which the target mRNA inhibition (Human Neuronal Cell, 7.5 µM) came to 65%.

On to “GTTTCCATCTACTATTAAT (sugars ldldllddddddddddlll, PS)”, for which, for the setting “Human Neuronal Cell, 7.5 µM”, the target mRNA inhibition is 59%.

Turning to “TTTATCAATATCTTCTCA (sugars l4 d10 l1 d1 l2, PS)”, the target mRNA inhibition (Human Neuronal Cell, 7.5 µM) was 69%.

“GTTTCCATCTACTATTAAT (sugars lddddlddddddllddlll, PS)”: the target mRNA inhibition (Human Neuronal Cell, 7.5 µM) amounted to 59%.

Take “CTTTAATGCTTCTAACT (sugars l4 d11 l2, PS)”: the target mRNA inhibition is 28% (Human Neuronal Cell, 0.2 µM) and 55% (Human Neuronal Cell, 1 µM).

Consider “AAGATCATTCTCAACAAT (sugars l4 d9 l5, PS)”, for which the target mRNA inhibition (Human Neuronal Cell, 7.5 µM) was determined as 52%.

For the sequence “AATTATTTATACACCATCAT (sugars ldlldddddddddddldlll, PS)”, where the note is “Human Neuronal Cell, 7.5 µM”, the target mRNA inhibition worked out at 62%.

Turning to “AAGATCATTCTCAACAAT (sugars l2 d1 l3 d8 l4, PS)”, the target mRNA inhibition (Human Neuronal Cell, 7.5 µM) worked out at 44%.

As to “ATTTATTTCCATTTATTTTC (sugars lldldlddddddddldldll, PS)”, the target mRNA inhibition (Human Neuronal Cell, 7.5 µM) is 55%.

As to ATCCTGATAATTAACT (sugars l4 d10 l2, PS), the target mRNA inhibition (Human Neuronal Cell, 0.2 µM) was -8% and the target mRNA inhibition (Human Neuronal Cell, 1 µM) amounted to 5%.

On to “TTATAGCCATTCTATCT (sugars lllddddddddldldll, PS)”, for which the target mRNA inhibition (Human Neuronal Cell, 7.5 µM) is 44%.

On to “ATCTCATGACCACCTAA (sugars ldldddddddddldlll, PS)”, for which the target mRNA inhibition (Human Neuronal Cell, 7.5 µM) was found to be 61%.

Regarding “AGCAACATTATTAACCACC (sugars lddldlddddddldddlll, PS)”, under “Human Neuronal Cell, 7.5 µM”, the target mRNA inhibition is 52%.

Regarding “CCATTTATTTCCATTTATTT (sugars lddlldldddddddddddll, PS)”, the target mRNA inhibition (Human Neuronal Cell, 7.5 µM) came out at 40%.

As to CCAGCATATTATATAC (sugars l3 d10 l3, PS), the target mRNA inhibition (Human Neuronal Cell, 0.2 µM) was found to be 27% and the target mRNA inhibition (Human Neuronal Cell, 1 µM) worked out at 23%.

For CACCTGATAACAGACC (sugars l3 d10 l3, PS), the target mRNA inhibition by setting is: (Human Neuronal Cell, 0.2 µM) -22%; (Human Neuronal Cell, 1 µM) 7%; (Human Neuronal Cell, 5 µM) 27%.

In the case of “ATTGATTCAATTCCCTT (sugars llddldddddddldlll, PS)”, the target mRNA inhibition (Human Neuronal Cell, 7.5 µM) was 50%.

As for “ACCAGCTACAGGAACCTC (sugars l3 d12 l3, PS)”, the target mRNA inhibition by setting is: (Human Neuronal Cell, 0.2 µM) -35%; (Human Neuronal Cell, 1 µM) -33%; (Human Neuronal Cell, 5 µM) -60%.

Consider “ATTTTTTTCTTACTATCTTC (sugars lddddlddddddddldldll, PS)”, for which the target mRNA inhibition (Human Neuronal Cell, 7.5 µM) was determined as 63%.

As to “TCTGTATACACCATCCC (sugars l2 d10 l1 d2 l2, PS)”, under “Human Neuronal Cell, 7.5 µM”, the target mRNA inhibition is 61%.

With “TTCCATTTATTTCCATTTAT (sugars ldddlddddddddddlldll, PS)”, the target mRNA inhibition (Human Neuronal Cell, 7.5 µM) is 55%.

Take “ATTTTTTTCTTACTATCTTC (sugars llddldldddddddldddll, PS)”: the target mRNA inhibition (Human Neuronal Cell, 7.5 µM) was determined as 49%.

With “GTTTCCATCTACTATTAA (sugars llldldddddddllddll, PS)”, the target mRNA inhibition (Human Neuronal Cell, 7.5 µM) stood at 28%.

“TTCTACTATACTTTCCTCT (sugars ldddldddddddddlddll, PS)”: the target mRNA inhibition (Human Neuronal Cell, 7.5 µM) was found to be 57%.

As to “CAACATTATTAACCACCTTA (sugars l1 d15 l4, PS)”, the target mRNA inhibition (Human Neuronal Cell, 7.5 µM) came to 36%.

On to “CTTTCCATTTATTTCCATT (sugars ldddddddddddldldlll, PS)”, for which the target mRNA inhibition (Human Neuronal Cell, 7.5 µM) came to 66%.

For TTGATTCAATTCCCTT (sugars l2 d10 l4, PS), the target mRNA inhibition turned out to be 67% (Human Neuronal Cell, 0.2 µM) and 72% (Human Neuronal Cell, 1 µM).

As for “TACTCTGCAATACACC (sugars l1 d1 l1 d11 l2, PS)”, the target mRNA inhibition (Human Neuronal Cell, 7.5 µM) worked out at 50%.

In the case of “TTTATCAATATCTTCTCAC (sugars lddlllddddddddlddll, PS)”, the target mRNA inhibition (Human Neuronal Cell, 7.5 µM) was 63%.

As for “TTATAGCCATTCTATCT (sugars llddlddddddldddll, PS)”, the target mRNA inhibition (Human Neuronal Cell, 7.5 µM) is 45%.

As for “TTTCCATTTATTTCCATTT (sugars lldlddddddddddlldll, PS)”, the target mRNA inhibition (Human Neuronal Cell, 7.5 µM) came out at 53%.

On to “TTATACCTTTCTTTAACCCT (sugars ldddldldddddddldddll, PS)”, for which the target mRNA inhibition (Human Neuronal Cell, 7.5 µM) was found to be 62%.

“TTCTGTATACACCATCC (sugars lddldddddddddldll, PS)”: the target mRNA inhibition (Human Neuronal Cell, 7.5 µM) came to 57%.

As to “AGATCATTCTCAACAATT (sugars ldllllddddddldddll, PS)”, where the note is “Human Neuronal Cell, 7.5 µM”, the target mRNA inhibition came to 48%.

For the sequence “GATCATTCTCAACAATTAA (sugars lllllddddddddldldll, PS)”, the target mRNA inhibition (Human Neuronal Cell, 7.5 µM) turned out to be 5%.

Consider “ATTTACACTTAATTATACTT (sugars lldlddlddddddllldlll, PS)”, for which the target mRNA inhibition (Human Neuronal Cell, 7.5 µM) is 10%.

On to “GATCATTCTCAACAATT (sugars l5 d7 l1 d2 l2, PS)”, for which the target mRNA inhibition (Human Neuronal Cell, 7.5 µM) came out at 34%.

As to “TACTCTGCAATACACCA (sugars l1 d10 l1 d3 l2, PS)”, the target mRNA inhibition (Human Neuronal Cell, 7.5 µM) was 59%.

Take “AAATTATTTATACACCATCA (sugars l1 d12 l3 d1 l3, PS)”: the target mRNA inhibition (Human Neuronal Cell, 7.5 µM) was found to be 40%.

In the case of “TAAAATTATTTATACACCAT (sugars lllldllddddddlllldll, PS)”, for the setting “Human Neuronal Cell, 7.5 µM”, the target mRNA inhibition was -13%.

“AAAATCTCAACTACCATTTT (sugars ldlddlddddddddldllll, PS)”: the target mRNA inhibition (Human Neuronal Cell, 7.5 µM) amounted to 28%.

For “CATTTCATATTACTAACT (sugars l3 d12 l3, PS)”, the target mRNA inhibition was 10% (Human Neuronal Cell, 0.2 µM) and 18% (Human Neuronal Cell, 1 µM).

As for “TTATAGCCATTCTATCT (sugars ldldlddddddlddlll, PS)”, the target mRNA inhibition (Human Neuronal Cell, 7.5 µM) stood at 37%.

On to “TTATAGCCATTCTATCT (sugars lddllddddddddldll, PS)”, for which the target mRNA inhibition (Human Neuronal Cell, 7.5 µM) was 62%.

For the sequence “CCTATGTTAATACTTTC (sugars l4 d11 l2, PS)”, the target mRNA inhibition (Human Neuronal Cell, 0.2 µM) turned out to be 35% and the target mRNA inhibition (Human Neuronal Cell, 1 µM) turned out to be 47%.

Take “TAAAATTATTTATACACCA (sugars l5 d8 l2 d1 l3, PS)”: under “Human Neuronal Cell, 7.5 µM”, the target mRNA inhibition was determined as 65%.
